Usually MIC stands for the least concentration at which growth counts as inhibited. High values mean weaker potency, low ones greater potency.

Our source for the MIC values is DBAASP.

In brackets after ≈: the same amount, converted by molar mass.

Holding throughout (assay): ≥ marks a high value that may be exact or a test limit, other limits are often not marked, values filed in µg/mL are converted to µM
In experiment [1] the test system is Candida tropicalis.
Experiment [2] concerns Escherichia coli.
For experiment [3], the system named is Pseudomonas aeruginosa.
Experiment [4] relates to Staphylococcus aureus.
For experiment [5], the system named is Aeromonas hydrophila.
In experiment [6] the test system is Bacillus cereus.
Experiment [7] relates to Candida albicans.
Experiment [8] relates to Corynebacterium glutamicum.
Experiment [9] concerns Cryptococcus neoformans.
The test system of experiment [10] is Staphylococcus epidermidis.
The subject of experiment [11] is Vibrio alginolyticus.
Experiment [12] relates to Vibrio parahaemolyticus.
The subject of experiment [13] is Aspergillus fumigatus.
For experiment [14], the system named is Bibersteinia trehalosi.
Experiment [15] relates to Corynebacterium pseudotuberculosis ATCC 19410.
The subject of experiment [16] is Klebsiella pneumoniae.
The subject of experiment [17] is Mannheimia haemolytica Serovar 1.
The subject of experiment [18] is Mannheimia haemolytica Serovar 2.
In experiment [19] the test system is Mannheimia haemolytica Serovar 6.
Experiment [20] deals with Pasteurella multocida.
Experiment [21] deals with Pseudomonas aeruginosa PAO1.
The test system of experiment [22] is Salmonella enterica subsp. arizonae.
In experiment [23] the test system is Escherichia coli C25.
The subject of experiment [24] is Staphylococcus aureus ATCC 25923.
In experiment [25] the test system is Escherichia coli ATCC 25922.
The subject of experiment [26] is Listeria monocytogenes KCTC 19111.
For experiment [27], the system named is Pseudomonas aeruginosa 3241.
Experiment [28] deals with Pseudomonas aeruginosa 4007.
Experiment [29] deals with Pseudomonas aeruginosa ATCC 15692.
Experiment [30] deals with Pseudomonas aeruginosa CCARM 2073.
Experiment [31] relates to Pseudomonas aeruginosa CCARM 2075.
The subject of experiment [32] is Salmonella typhimurium KCTC 1926.
The subject of experiment [33] is Staphylococcus aureus 3399.
In experiment [34] the test system is Staphylococcus aureus 3518.
Experiment [35] deals with Staphylococcus aureus CCARM 3125.
Experiment [36] relates to Staphylococcus aureus CCARM 3709.
The test system of experiment [37] is Staphylococcus epidermidis KCTC 1917.
Experiment [38] deals with Candida albicans ATCC 10231.
The test system of experiment [39] is Cryptococcus neoformans ATCC 32045.
Experiment [40] relates to Escherichia coli ATCC 2592.
Experiment [41] relates to Pseudomonas aeruginosa ATCC 10145.
Experiment [42] has as its system Staphylococcus aureus ATCC 33591.

As for `CSCC[C@@H]1NC(=O)[C@H](CC(C)C)NC(=O)[C@H](CCCNC(=N)N)NC(=O)[C@H](CO)NC(=O)[C@@H]2CSSC[C@@H]3NC(=O)[C@H](CO)NC(=O)CNC(=O)[C@H]([C@@H](C)O)NC(=O)[C@H](CSSC[C@H](N)C(=O)N[C@@H](CCCCN)C(=O)NCC(=O)N[C@@H](CCCCN)C(=O)NCC(=O)N[C@@H](C)C(=O)N[C@@H](CCCCN)C(=O)N2)NC(=O)[C@H](CSSC[C@@H](C(N)=O)NC(=O)[C@H](CCCCN)NC(=O)CNC(=O)[C@H](CO)NC(=O)[C@H](CCCNC(=N)N)NC3=O)NC(=O)[C@H](CC(=O)O)NC(=O)[C@H](Cc2ccc(O)cc2)NC1=O` [CKGKGAKCSRLMYDCCTGSCRSGKC], the MIC in [1] is ≥ 39.8 µM; in [2], > 500 µM; in experiment [3], > 500 µM; in experiment [4], > 500 µM.
Regarding `CC[C@H](C)[C@H](NC(=O)[C@H](C)NC(=O)CNC(=O)[C@@H](NC(=O)[C@@H](NC(=O)[C@H](Cc1cnc[nH]1)NC(=O)[C@H](CCCN=C(N)N)NC(=O)[C@H](Cc1ccccc1)NC(=O)[C@@H](N)Cc1ccccc1)[C@@H](C)CC)C(C)C)C(=O)N[C@@H](CO)C(=O)N[C@@H](CCCN=C(N)N)C(=O)N[C@H](C(=O)N[C@@H](Cc1ccccc1)C(=O)NCC(=O)N[C@@H](CCC(N)=O)C(=O)N[C@@H](CCCCN)C(=O)N[C@@H](CCC(N)=O)C(=O)N[C@@H](CCCN=C(N)N)C(=O)N[C@@H](CC(=O)O)C(=O)N[C@@H](CCSC)C(=O)N[C@@H](C)C(=O)N[C@@H](CC(=O)O)C(=O)O)[C@@H](C)CC` [FFRHIVGAISRIFGQKQRDMAD], the MIC in experiment [5] was ≥ 50 µM; in experiment [6], 17.7 µM (≈ 45.8 µg/mL); in experiment [7], 17.7 µM (≈ 45.8 µg/mL); in experiment [8], 2.21 µM (≈ 5.73 µg/mL); in experiment [9] it was 2.21 µM (≈ 5.73 µg/mL); in experiment [2] it was 17.7 µM (≈ 45.8 µg/mL). For the same compound, the minimal inhibitory concentration (MIC) in [3] is 35.4 µM (≈ 91.7 µg/mL); in experiment [4], 4.42 µM (≈ 11.5 µg/mL); in [10], 17.7 µM (≈ 45.8 µg/mL); in experiment [11], ≥ 50 µM; in experiment [12] it was ≥ 50 µM.
In the case of `CC[C@H](C)[C@H](N)C(=O)N[C@@H](CCCN=C(N)N)C(=O)N[C@@H](CCCN=C(N)N)C(=O)N[C@H](C(=O)N[C@H](C(=O)N[C@@H](CCCN=C(N)N)C(=O)N[C@@H](CCCCN)C(=O)N[C@H](C(=O)N[C@H](C(=O)N[C@@H](Cc1cnc[nH]1)C(=O)N[C@H](C(=O)N[C@H](C(=O)N[C@@H](CCCCN)C(=O)N[C@@H](CCCCN)C(=O)O)[C@@H](C)CC)[C@@H](C)CC)[C@@H](C)CC)[C@@H](C)CC)[C@@H](C)CC)[C@@H](C)CC` [IRRIIRKIIHIIKK], the MIC in experiment [13] is 22.2 µM (≈ 40 µg/mL); in [14], 11.1 µM (≈ 20 µg/mL); in experiment [15], 11.1 µM (≈ 20 µg/mL); in experiment [16], > 11.1 µM; in [17], 5.55 µM (≈ 10 µg/mL); in [18], 2.33 µM (≈ 4.2 µg/mL). Also, the MIC is 3.72 µM (≈ 6.7 µg/mL) in experiment [19]; 8.33 µM (≈ 15 µg/mL) in experiment [20]; 2.78 µM (≈ 5 µg/mL) in experiment [21]; 11.1 µM (≈ 20 µg/mL) in experiment [22]; > 11.1 µM in [4].
For the compound `CC[C@H](C)[C@H](NC(=O)CNC(=O)[C@H](CCCCN)NC(=O)[C@H](Cc1ccc(O)cc1)NC(=O)[C@@H](NC(=O)[C@H](CCCCN)NC(=O)[C@H](Cc1ccccc1)NC(=O)[C@H](Cc1c[nH]c2ccccc12)NC(=O)[C@@H](N)CCCCN)C(C)C)C(=O)N[C@@H](Cc1ccc(O)cc1)C(=O)N[C@@H](CCCCN)C(=O)N[C@@H](CCCCN)C(=O)N[C@@H](CCCCN)C(N)=O` [KWFKVYKGIYKKK], the MIC was found to be 8.2 µM (≈ 14.1 µg/mL) in experiment [23] and 33 µM (≈ 56.6 µg/mL) in experiment [24].
On to `NCCCC[C@H](NC(=O)[C@H](Cc1ccc(O)cc1)NC(=O)[C@H](Cc1c[nH]c2ccccc12)NC(=O)[C@H](CCCCN)NC(=O)[C@H](CCCCN)NC(=O)[C@H](Cc1ccc(O)cc1)NC(=O)[C@H](Cc1c[nH]c2ccccc12)NC(=O)[C@H](CCCCN)NC(=O)[C@H](CCCCN)NC(=O)[C@H](Cc1ccc(O)cc1)NC(=O)[C@H](Cc1c[nH]c2ccccc12)NC(=O)[C@@H](N)CCCCN)C(N)=O` [KWYKKWYKKWYK], for which the MIC in [25] stood at 2 µM (≈ 3.67 µg/mL); in experiment [26], 2 µM (≈ 3.67 µg/mL); in experiment [27], 2 µM (≈ 3.67 µg/mL); in experiment [28], 4 µM (≈ 7.34 µg/mL); in experiment [29], 2 µM (≈ 3.67 µg/mL); in experiment [30], 2 µM (≈ 3.67 µg/mL). For the same compound, the MIC is 2 µM (≈ 3.67 µg/mL) in experiment [31]; 2 µM (≈ 3.67 µg/mL) in [32]; 4 µM (≈ 7.34 µg/mL) in experiment [33]; 2 µM (≈ 3.67 µg/mL) in [34]; 4 µM (≈ 7.34 µg/mL) in experiment [24]; 4 µM (≈ 7.34 µg/mL) in [35]. In addition, the MIC in [36] and in experiment [37] was 2 µM (≈ 3.67 µg/mL) in each case.
`CC(C)C[C@H](NC(=O)[C@H](CCCCN)NC(=O)[C@H](CCCCN)NC(=O)[C@H](CC(C)C)NC(=O)[C@H](CC(C)C)NC(=O)[C@H](CCCCN)NC(=O)[C@H](CCCCN)NC(=O)[C@H](CC(C)C)NC(=O)[C@H](CC(C)C)NC(=O)[C@H](CCCCN)NC(=O)[C@H](CCCCN)NC(=O)[C@H](CC(C)C)NC(=O)[C@H](CC(C)C)NC(=O)[C@H](CCCCN)NC(=O)[C@H](CCCCN)NC(=O)[C@H](CC(C)C)NC(=O)[C@H](CC(C)C)NC(=O)[C@H](CCCCN)NC(=O)[C@H](CCCCN)NC(=O)[C@H](CC(C)C)NC(=O)[C@H](CC(C)C)NC(=O)[C@H](CCCCN)NC(=O)[C@H](CCCCN)NC(=O)[C@H](CC(C)C)NC(=O)[C@H](CC(C)C)NC(=O)[C@H](CCCCN)NC(=O)[C@H](CCCCN)NC(=O)[C@@H](N)CC(C)C)C(=O)O` [LKKLLKKLLKKLLKKLLKKLLKKLLKKL]: the MIC was 104 µM (≈ 354 µg/mL) in experiment [38]; ≥ 32.9 µM in experiment [39]; 25.9 µM (≈ 88 µg/mL) in experiment [40]; ≥ 36.8 µM in experiment [41]; ≥ 73.6 µM in experiment [42].
